Reference: patent US20120270929A1, “MODULATION OF TTC39 EXPRESSION TO INCREASE HDL” (ISIS Pharmaceuticals, Inc., priority 2009, published 2012)
Oligonucleotides are written 5' to 3', each unit as a sugar letter and its base; * is a phosphorothioate linkage, no mark a phosphodiester; rarer units and linkages stand in square brackets, end groups in braces. Plain capitals give the bases only. e = 2'-O-(2-methoxyethyl) (MOE); [5mC] = 5-methylcytosine; d = 2'-deoxy (DNA)

Columns and labels:
[1] = Liver function: plasma transaminases (ALT, AST) in C57BL/6 mice; assay type: in vivo, mouse
Experimental: (§1) Four groups of five mice each were injected twice a week with 25 mg/kg (totaling 50 mg/kg/week) of ISIS 447114, ISIS 447118, ISIS 447143, or ISIS 447144 for 6 weeks. A control group of five mice was injected with phosphate buffered saline (PBS) twice a week for 6 weeks. Plasma samples were obtained before the start of treatment, at week 3 and at week 6. At the end of the treatment period, mice were fasted for 4 hours before being euthanized. Plasma and tissue samples were obtained for further analysis.
To evaluate the impact of ISIS oligonucleotides on the hepatic function of the mice described above, plasma concentrations of transaminases were measured using an automated clinical chemistry analyzer (Olympus Clinical Analyzer). Measurements of alanine transaminase (ALT) and aspartate transaminase (AST) are expressed in IU/L. The results are presented in Tables 19 and 20 and indicate that the oligonucleotides were well tolerated.

[2] = Body and organ weights in C57BL/6 mice; assay type: in vivo, mouse; settings: for Kidney weight after treatment / Liver weight after treatment / Spleen weight after treatment: 50 mg/kg/week, 6 weeks
Experimental: as §1
Body weights of all the mice were measured weekly till the end of the treatment period. Organ weights were taken at the end of the treatment period when the mice were euthanized.

[3] = test system: murine TTC39B mRNA; assay: Dose-dependent antisense inhibition of murine TTC39B in mouse primary hepatocytes (Example 2); assay type: cell-based; settings: cytofectin, ~16 h
In short: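 Mouse primary hepatocytes (10,000/well) transfected via cytofectin with 25, 50, 100 or 200 nM antisense oligonucleotide for about 16 h. TTC39B mRNA quantified by real-time PCR, normalized to RIBOGREEN total RNA, as % inhibition versus untreated cells.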

[4] = test system: LDLR mRNA; assay: LDLR mRNA levels in C57BL/6 mice; assay type: in vivo, mouse; settings: 50 mg/kg/week, 6 weeks, compared to PBS control
Experimental: as §1
The effect of inhibition of TTC39B in mice on cholesterol homeostasis was studied. PCSK9 mRNA levels were measured using the murine primer probe set mPCSK9 (forward sequence ACCGACTTCAACAGCGTGC, designated herein as SEQ ID NO: 106; reverse sequence GGCTGTCACACTTGCTCGC, designated herein as SEQ ID NO: 107, probe sequence AGGATGGGACACGCTTCCACAGACAX, wherein X is a fluorophore, designated herein as SEQ ID NO: 108). LDLR mRNA levels were measured using the murine primer probe set mLDLR (forward sequence GACCGCAGCGAGTACACCA, designated herein as SEQ ID NO: 109; reverse sequence TCACCTCCGTGTCGAGAGC, designated herein as SEQ ID NO: 110, probe sequence […], designated herein as SEQ ID NO: 111). The results are presented as percentage inhibition compared to the PBS control.

[5] = test system: SRB1 mRNA; assay: SRB1 mRNA levels in C57BL/6 mice after TTC39B inhibition; assay type: in vivo, mouse; settings: 50 mg/kg/week, 6 weeks
Experimental: as §1
(§2) The effect of inhibition of TTC39B in mice on these proteins of reverse cholesterol transport was studied. RNA levels of ABCA1 were measured using murine primer probe set RTS1204 (forward sequence […], designated herein as SEQ ID NO: 97; reverse sequence […], designated herein as SEQ ID NO: 98; and probe sequence […], designated herein as SEQ ID NO: 99). RNA levels of apoA1 were measured using murine primer probe set RTS14737 (forward sequence […], designated herein as SEQ ID NO: 100; reverse sequence […], designated herein as SEQ ID NO: 101; and probe sequence […], designated herein as SEQ ID NO: 102). RNA levels of SRB1 were measured using murine primer probe set mSRB-1 (forward sequence […], designated herein as SEQ ID NO: 103; reverse sequence ATGCGACTTGTCAGGCTGG, designated herein as SEQ ID NO: 104; and probe sequence […], designated herein as SEQ ID NO: 105).

[6] = Plasma NEFA and 3-HB in C57BL/6 mice; assay type: in vivo, mouse; design: 3-HB levels: unit not given here; settings: for 3-HB % change over the baseline / NEFA % change over the baseline: 6 weeks
Experimental: as §1
Effect of antisense inhibition of TTC39B on free fatty acid levels Plasma levels of non-esterified fatty acids (NEFA) and 3-hydroxybutyric acid (3-HB), which are the end-products of fatty acid oxidation, were measured using an automated clinical chemistry analyzer (Olympus Clinical Analyzer).

[7] = test system: ABCA1 mRNA; assay: ABCA1 mRNA levels in C57BL/6 mice after TTC39B inhibition; assay type: in vivo, mouse; settings: 50 mg/kg/week, 6 weeks
Experimental: as §1, §2

[8] = Plasma cholesterol and triglycerides in C57BL/6 mice (Olympus AU400e); assay type: in vivo, mouse; settings: for total cholesterol % increase over baseline: 6 weeks, baseline average of 72 mg/dL
Experimental: as §1
To investigate the effect of inhibition of TTC39B on triglycerides and cholesterol levels in the plasma, samples were collected on weeks 0, 3, and 6, and total plasma cholesterol, LDL cholesterol, HDL cholesterol, and triglycerides were analyzed on an Olympus AU400e Analyzer.

[9] = Week 0 (before treatment), 50 mg/kg/week

With “GCCACCAGTGCCTGCTGAGC (antisense eG*e[5mC]*e[5mC]*eA*e[5mC]*d[5mC]*dA*dG*dT*dG*d[5mC]*d[5mC]*dT*dG*d[5mC]*eT*eG*eA*eG*e[5mC]) [ISIS 447143]” the ALT levels [1, 9] was 32 IU/L, the AST levels [1, 9] was 50 IU/L and the ALT levels ([1]; Week 3, 50 mg/kg/week) was 31 IU/L. The AST levels ([1]; Week 3, 50 mg/kg/week) was 31 IU/L, the ALT levels ([1]; Week 6, 50 mg/kg/week) was 45 IU/L and the AST levels ([1]; Week 6, 50 mg/kg/week) was 73 IU/L. The “Kidney weight after treatment” value [2] was 0.34 g, the “Liver weight after treatment” value [2] was 1.5 g and the “Spleen weight after treatment” value [2] was 0.08 g. The body weight ([2]; Week 3, 50 mg/kg/week) was 27 g, the body weight ([2]; Week 6, 50 mg/kg/week) was 28 g and the body weight ([2]; week 1, 50 mg/kg/week) was 26 g. For the same sequence, the body weight ([2]; week 2, 50 mg/kg/week) was 26 g, the body weight ([2]; week 4, 50 mg/kg/week) was 27 g and the body weight ([2]; week 5, 50 mg/kg/week) was 28 g. For the same sequence, the “percent inhibition of TTC39B mRNA” value ([3]; 25 nM) was 36%, the “percent inhibition of TTC39B mRNA” value ([3]; 50 nM) was 71% and the “percent inhibition of TTC39B mRNA” value ([3]; 100 nM) was 79%. The “percent inhibition of TTC39B mRNA” value ([3]; 200 nM) was 91%, the “Percent inhibition LDLR mRNA levels” value [4] was 34% and the “srb1 mRNA levels (effect of TTC39B inhibition)” value [5] was 0. For the same sequence, the “3-HB % change over the baseline” value ([6]; 50 mg/kg/week) was “+41%”, the “NEFA % change over the baseline” value ([6]; 50 mg/kg/week) was “+109%” and the 3-HB levels [6, 9] was 108. It also gave an NEFA levels [6, 9] of 0.70 mEq/L, a 3-HB levels ([6]; Week 3, 50 mg/kg/week) of 89 and an NEFA levels ([6]; Week 3, 50 mg/kg/week) of 0.72 mEq/L. For the same sequence, the 3-HB levels ([6]; Week 6, 50 mg/kg/week) was 222, the NEFA levels ([6]; Week 6, 50 mg/kg/week) was 1.30 mEq/L and the “abcA1 mRNA levels (effect of TTC39B inhibition)” value [7] was −17. For the same sequence, the “total cholesterol % increase over baseline” value ([8]; 50 mg/kg/week) was “+46%”, the HDL cholesterol levels [8, 9] was 44 mg/dL and the LDL cholesterol levels [8, 9] was 13 mg/dL. For the same sequence, the total cholesterol levels [8, 9] was 70 mg/dL, the triglyceride levels [8, 9] was 95 mg/dL and the HDL cholesterol levels ([8]; Week 3, 50 mg/kg/week) was 56 mg/dL. For the same sequence, the “HDL cholesterol levels (% change over baseline)” value ([8]; Week 3, 50 mg/kg/week) was “+28%”, the LDL cholesterol levels ([8]; Week 3, 50 mg/kg/week) was 14 mg/dL and the total cholesterol levels ([8]; Week 3, 50 mg/kg/week) was 81 mg/dL. The triglyceride levels ([8]; Week 3, 50 mg/kg/week) was 92 mg/dL, the HDL cholesterol levels ([8]; Week 6, 50 mg/kg/week) was 91 mg/dL and the “HDL cholesterol levels (% change over baseline)” value ([8]; Week 6, 50 mg/kg/week) was “+104%”. For the same sequence, the LDL cholesterol levels ([8]; Week 6, 50 mg/kg/week) was 17 mg/dL, the total cholesterol levels ([8]; Week 6, 50 mg/kg/week) was 104 mg/dL and the triglyceride levels ([8]; Week 6, 50 mg/kg/week) was 95 mg/dL.
With “TATTTCTATAGCTCATGACA (antisense eT*eA*eT*eT*eT*d[5mC]*dT*dA*dT*dA*dG*d[5mC]*dT*d[5mC]*dA*eT*eG*eA*e[5mC]*eA) [ISIS 447144]” the ALT levels [1, 9] was 28 IU/L, the AST levels [1, 9] was 67 IU/L and the ALT levels ([1]; Week 3, 50 mg/kg/week) was 21 IU/L. It also gave an AST levels ([1]; Week 3, 50 mg/kg/week) of 31 IU/L, an ALT levels ([1]; Week 6, 50 mg/kg/week) of 69 IU/L and an AST levels ([1]; Week 6, 50 mg/kg/week) of 113 IU/L. The “Kidney weight after treatment” value [2] was 0.34 g, the “Liver weight after treatment” value [2] was 1.3 g and the “Spleen weight after treatment” value [2] was 0.08 g. It also gave a body weight ([2]; Week 3, 50 mg/kg/week) of 26 g, a body weight ([2]; Week 6, 50 mg/kg/week) of 28 g and a body weight ([2]; week 1, 50 mg/kg/week) of 25 g. The body weight ([2]; week 2, 50 mg/kg/week) was 26 g, the body weight ([2]; week 4, 50 mg/kg/week) was 27 g and the body weight ([2]; week 5, 50 mg/kg/week) was 27 g. The “percent inhibition of TTC39B mRNA” value ([3]; 25 nM) was 37%, the “percent inhibition of TTC39B mRNA” value ([3]; 50 nM) was 69% and the “percent inhibition of TTC39B mRNA” value ([3]; 100 nM) was 74%. For the same sequence, the “percent inhibition of TTC39B mRNA” value ([3]; 200 nM) was 84%, the “Percent inhibition LDLR mRNA levels” value [4] was 2% and the “srb1 mRNA levels (effect of TTC39B inhibition)” value [5] was 0. The “3-HB % change over the baseline” value ([6]; 50 mg/kg/week) was “+152%”, the “NEFA % change over the baseline” value ([6]; 50 mg/kg/week) was “+101%” and the 3-HB levels [6, 9] was 124. It also gave an NEFA levels [6, 9] of 0.57 mEq/L, a 3-HB levels ([6]; Week 3, 50 mg/kg/week) of 122 and an NEFA levels ([6]; Week 3, 50 mg/kg/week) of 0.63 mEq/L. For the same sequence, the 3-HB levels ([6]; Week 6, 50 mg/kg/week) was 398, the NEFA levels ([6]; Week 6, 50 mg/kg/week) was 1.25 mEq/L and the “abcA1 mRNA levels (effect of TTC39B inhibition)” value [7] was 0. The “total cholesterol % increase over baseline” value ([8]; 50 mg/kg/week) was “+37%”, the HDL cholesterol levels [8, 9] was 46 mg/dL and the LDL cholesterol levels [8, 9] was 14 mg/dL. It also gave a total cholesterol levels [8, 9] of 75 mg/dL, a triglyceride levels [8, 9] of 78 mg/dL and an HDL cholesterol levels ([8]; Week 3, 50 mg/kg/week) of 53 mg/dL. The “HDL cholesterol levels (% change over baseline)” value ([8]; Week 3, 50 mg/kg/week) was “+14%”, the LDL cholesterol levels ([8]; Week 3, 50 mg/kg/week) was 14 mg/dL and the total cholesterol levels ([8]; Week 3, 50 mg/kg/week) was 81 mg/dL. The triglyceride levels ([8]; Week 3, 50 mg/kg/week) was 70 mg/dL, the HDL cholesterol levels ([8]; Week 6, 50 mg/kg/week) was 90 mg/dL and the “HDL cholesterol levels (% change over baseline)” value ([8]; Week 6, 50 mg/kg/week) was “+88%”. The LDL cholesterol levels ([8]; Week 6, 50 mg/kg/week) was 18 mg/dL, the total cholesterol levels ([8]; Week 6, 50 mg/kg/week) was 107 mg/dL and the triglyceride levels ([8]; Week 6, 50 mg/kg/week) was 91 mg/dL.
